From article PMC3056768, “Conjugation to the Cell-Penetrating Peptide TAT Potentiates the Photodynamic Effect of Carboxytetramethylrhodamine” (PLoS ONE, 2011)
“Also recorded” adds a separate entry of the source.

How the values were obtained:
HeLa cells [1] = experiment: Photocytotoxicity of endocytosed peptide after light irradiation (SYTOX Blue staining, membrane blebbing); format: cell-based; details: for photocytotoxicity / cell death after irradiation at 560 nm: incubation 1 h 37°C (3 µM; TMR-K9 10 µM), irradiated at 560±20 nm
Description: (§1) HeLa (human cervical adenocarcinoma), COS-7 (SV40 transformed African green monkey kidney fibroblast-like cell line) were obtained from ATCC. COLO 316 (human ovarian carcinoma) were obtained from Robert Burghardt (Department of Veterinary Integrative Biosciences, Texas A&M University). Cells were cultured in DMEM supplemented with 10% fetal bovine serum (FBS) and maintained at 37°C in a humidified environment with 5% CO2. Cells were plated in 8-well dishes so that the cells were 70% confluent after 24 h, washed 3 times with L-15 media, incubated with 3 to 10 µM peptides at 37°C for 1 h, washed 3 times with L-15, and imaged. Alternatively, cells were incubated in L-15 at 4°C to inhibit the endocytic uptake of peptides. In this case, cells were imaged with the peptide still present in solution and the low temperature was maintained for the entire duration of imaging. For photosensitization, cells were exposed to light (λex = 560±20 nm) for the indicated time points. Plasma membrane disruption was detected by addition of the cell-impermeable DNA stain SYTOX Blue (5 µM) during or after photosensitization.
(§2) Ten to twenty images were acquired for each experiment.
Irradiances at the specimen were 100 mW/cm^2 when no neutral density filter and no objective were present in the light path (and, for instance 5 mW/cm^2 when ND4 was inserted). Irradiances were measured using a monochromic photometer (model 840-c, Newport, Irvine, CA). Irradiation area has a diameter of 1.3 cm without objective but the light beam is focused into an area of 3×10^−3 cm^2 by the 100× objective. Irradiances can therefore be approximated to be at […] with ND4 or ND1, respectively. Irradiances provided in the figure legends are based on these calculations. To confirm that the irradiances measured on the microscope were accurate, experiments were also reproduced, when possible, using light illumination with a collimated light source from Oriel (Stratford, CT) equipped with a 500 W Hg lamp. Selective irradiation at 560 nm was performed using an analytical line filter (Oriel, 9.4 nm bandwidth). In this case, irradiances of the light beam (diameter of 2.5 cm) could be measured more precisely using the monochromic photometer.

HeLa cells [2] = experiment: Photosensitization of extracellular peptide at 4°C (endocytosis blocked); format: cell-based, human; details: 3 µM, 4°C to block endocytosis, irradiated at 560 nm with compound still in the media
Description: as §1
It is therefore possible that the endosomal release observed in the experiments of Figure 1 might be necessary to cause cell death. To investigate whether this is the case, we examined if light-induced cell-death could be observed when the peptides were only localized at the plasma membrane of cells. For these experiments, HeLa cells were first incubated with the peptides (3 µM) at 4°C to block endocytosis. Cells were then irradiated with the peptides still present in the media (the peptide is not retained at the plasma membrane when cells are washed). […] Cells were then washed and observed by fluorescence imaging. […] On the other hand, the membrane damage and cell death obtained after TMR-TAT photosensitization were also observed when hematoporphyrin (HP) or hematoporphyrin derivative (HPD) were used (Fig. 4B). […]

red blood cells (RBCs) = details: for effect of hydrophilic 1O2 scavenger on photohemolysis by TMR-TAT or TMR-riTAT: scavenger up to 50 mM, TMR-TAT or TMR-riTAT 3 µM
Description: Whole blood was purchased from Gulf Coast Regional Blood Center (Houston, TX). Erythrocytes were centrifuged for 5 min at 1500 g and the erythrocyte pellet was resuspended with PBS. This was repeated three times to remove plasma and buffy coat. The erythrocytes (50% volume in PBS) were diluted in PBS to a final concentration of 0.25%. Indicated concentration of peptide was added to the medium and the samples were added to the wells of an 8-well chamber glass slide (Nunc). Cells were typically allowed to settle to the bottom of the dish for 5 minutes prior to imaging so as to obtain a layer of cells in the focal plane.
Cells were placed on an inverted epifluorescence microscope (Model IX81, Olympus, Center Valley, PA) equipped with a heating stage maintained at 37°C. The microscope is configured with a spinning disk unit to perform both confocal and wide-field fluorescence microscopy. Images were collected using a Rolera-MGI Plus back-illuminated EMCCD camera (Qimaging, Surrey, BC, Canada). Images were acquired using bright field imaging and two standard fluorescence filter sets: Texas Red (Ex = 560±20 nm/Em = 630±35 nm), and CFP (Ex = 436±10 nm/Em = 480±20 nm). The excitation light was from a 100 W halogen lamp (Olympus USH 1030C) passed through the filter cubes and 40 or 100× objective lenses. Neutral density filters (ND 1, 2, 3, or 4 on the instrument, corresponding to 100, 25, 12.5, or 5% transmittance) and different exposure times were used to modulate the amount of light samples were exposed to. The bright field and fluorescence intensities of cells and ghosts were measured using the SlideBook 4.2 software (Olympus, Center Valley, PA). To determine the percentage of cells stained by SYTOX® Blue, cells were imaged with a 20× objective by phase contrast. Ten to twenty images were acquired for each experiment. The total number of cells in a given image was determined from the phase contrast image while the number of dead cells was determined by identifying cells containing a blue fluorescent nucleus stained by SYTOX® Blue. Cell viability was determined by establishing a ratio of dead cells/total number of cells for each sample (at least 1000 cells were counted in each experiments and each experiments were repeated 3 times).
TMR and TMR containing peptides were used at 2 µM. All experiments were performed by irradiating the samples at 560 nm for 400 msec (∼8 J/cm^2). The data in the histogram represents the average of 4 experiments and the error bars correspond to the standard deviation.

[3] = cited from earlier work
Description: Upon light irradiation TMR-TAT rapidly and efficiently disrupts the membrane of endosomes. However, in our hands, this activity is also accompanied by the simultaneous destruction of cells. The peptide therefore played the role of a photosensitizer, a molecule able to kill cells upon light irradiation. While multiple cellular events might take place during the photosensitization of the compound, the damage to cellular membranes other than that of endosomes appears to lead to this photocytotoxic effect. The peptide was for instance able to lyse the plasma membrane of HeLa cells as well as the m ...

HeLa cells [4] = experiment: Photo-induced endosomal release (fluorescence imaging); format: cell-based, human; details: washed
Description: as §1, §2
The effect of light irradiation on cells that have endocytosed TMR-TAT was first investigated. HeLa cells were incubated in the presence of TMR-TAT (3 µM) for 1 hour at 37°C. After washing the cells, the sample was placed on a microscope and the cellular distribution of the peptide was assessed by fluorescence imaging. […] Within seconds, the content of many endosomes was released into the cell and the peptides were distributed throughout the cell. The peptide also accumulated at the nucleoli, a known effect of TAT [7]. […] The viability of non-irradiated cells was, in contrast, not affected by TMR-TAT (Fig. 2B); we found the cytotoxicity of the peptide to be negligible in the absence of light at concentrations up to 25 µM (supporting information Fig. S1).

HeLa cells [5] = experiment: Endocytic uptake (fluorescence of endocytic organelles); format: cell-based, human
Description: as §1
Supplementary file pone.0017732.s003.tif: Figure S3 Comparison of the fluorescence intensity of endosomes containing TMR-TAT (incubation at 3 µM) or TMR-K9 (incubation at 10 µM) in the images presented in Figure 1. Imaging was performed in both cases under identical conditions. The fluorescence intensities of all endocytic organelles was measured the Slidebook software. […] (TIF) Click here for additional data file.

5(6)-carboxytetramethylrhodamine [TMR, reference compound]
photocytotoxicity / cell death after irradiation at 560 nm (HeLa cells [1]; washed): did not cause cell death; also recorded: essentially non-cytotoxic | light-induced cell death with peptide only extracellular (HeLa cells [2]): did not die | photohemolysis (lytic effect on RBCs upon light exposure) (red blood cells (RBCs); RBCs 0.25% in PBS, irradiation at 560 nm): no lytic effect

CC1=C(CCC(=O)O)c2cc3[nH]c(cc4nc(cc5[nH]c(cc1n2)c(C)c5C(C)O)C(C)=C4C(C)O)c(C)c3CCC(=O)O (stereo not shown) [HP, hematoporphyrin]
membrane damage and cell death after photosensitization (HeLa cells [1]; incubated 1 hour, washed with L-15, irradiated at 560 nm): also observed | singlet oxygen quantum yield [3]: approximately 0.5

N[C@@H](Cc1c[nH]cn1)C(=O)O [L-histidine, reference compound]
effect of hydrophilic 1O2 scavenger on photohemolysis by TMR-TAT or TMR-riTAT (red blood cells (RBCs)): no detectable decrease

CC(/C=C/C=C(\C)C(=O)O)=C\C=C\C=C(C)\C=C\C=C(/C)C(=O)O [crocetin, reference compound]
cell death by irradiated TMR-TAT in the presence of quencher (HeLa cells [1]; TMR-TAT 3 µM with crocetin 50 µM for 1 hour, washed, 560 nm): cell-death was not observed; also recorded: not accompanied by membrane blebbing or SYTOX® Blue staining | endosomal release of TMR-TAT in the presence of quencher (HeLa cells [4]; TMR-TAT 3 µM with crocetin 50 µM for 1 hour, 560 nm): lesser extent; also recorded: reduced by crocetin but not abolished | effect of quencher on photohemolysis (red blood cells (RBCs); crocetin 50 µM): dramatic reduction

[N-]=[N+]=[N-].[Na+] [sodium azide, reference compound]
effect of hydrophilic 1O2 scavenger on photohemolysis by TMR-TAT or TMR-riTAT (red blood cells (RBCs)): no detectable decrease

CC(=O)Oc1c(C)c(C)c2c(c1C)CCC(C)(CCC[C@H](C)CCC[C@H](C)CCCC(C)C)O2 (stereo partly drawn) [α-tocopherol acetate]
onset of photosensitization of TMR-TAT in the presence of quencher (HeLa cells [1]; α-tocopherol acetate prior to TMR-TAT incubation and during irradiation): delayed | photo-induced endosomal release and cell death by TMR-TAT in the presence of quencher (HeLa cells [1]; α-tocopherol acetate prior to TMR-TAT incubation and during irradiation, data not shown): still observed

GRKKRRQRRR [TAT, prototypical cell-penetrating peptide TAT, unlabeled]
photocytotoxicity / cell death after irradiation at 560 nm (HeLa cells [1]; washed): did not die

TMR-KKKKKKKKK-NH2 [TMR-K9, 9 positively charged lysine residues labeled with TMR; serves as a control]
photocytotoxicity / cell death after irradiation at 560 nm (HeLa cells [1]; washed): remain viable; also recorded: no photocytoxicity; also recorded: essentially non-cytotoxic | photo-induced endosomal release (photoendosomolytic activity) at 560 nm (HeLa cells [4]; incubation 1 h 37°C (3 µM; TMR-K9 10 µM), irradiated at 560±20 nm): not affected | light-induced cell death with peptide only extracellular (HeLa cells [2]): did not die | fold less efficient than TMR-TAT and TMR-riTAT in causing photohemolysis (red blood cells (RBCs); RBCs 0.25% in PBS, 2 µM, 560 nm for 400 msec (~8 J/cm^2), average of 4 experiments): 5 fold | endocytic uptake by cells (HeLa cells [5]; 1 h at 37°C, washed, fluorescence imaging (TMR-TAT 3 µM; TMR-K9 higher concentration)): endocytosed by cells | amount present in endocytic organelles (fluorescence intensity) compared with TMR-TAT (HeLa cells [5]; TMR-K9 incubation at 10 µM vs TMR-TAT at 3 µM, identical imaging): equal or greater that that of TMR-TAT
